Laboratory results as given in article PMC7253423, “Quassinoid analogs with enhanced efficacy for treatment of hematologic malignancies target the PI3Kγ isoform” (Communications Biology, 2020).

Tests used:
[1] = In vivo toxicity test, survival rate; set-up: species or system NOD/SCID mice; conditions: for survival event status per mouse (Fig 6i; 1 = event/death, 0 = censored): 10mg/kg
Method: The survival rate was recorded to monitor the tolerance of the compounds in these mice.

MOLM14 cells = assay: Cell viability assay (CellTiter-Glo luminescence); format: cell-based; conditions: Homo sapiens
Method: (§1) 5000 cells as indicated were cultured in 96-well plate with 100 μl of media. […] After treatment, the cells were incubated with 100 μl buffer for 10 min at room temperature following the instructions of CellTiter-Glo kit (Promega, Madison, WI). Luminescence was detected using a multi-mode reader Cytation 5 (BioTek, Winooski, VT). […] Two independent experiments done in duplicates were performed.

K562 cells [2] = assay: Cell viability assay (CellTiter-Glo luminescence); format: cell-based, human; conditions: K562, 100nM, 72 hours
Method: as §1

LCL1 cells [3] = assay: RNA-Seq and Ingenuity Pathway Analysis (upstream regulator analysis); format: cell-based, human
Method: The cDNA library was prepared with the commercial Illumina library preparation kits (TruSeq Stranded RNA LT Ribo-Zero H/M/R Kit) according to the manufacturer’s protocols and sequenced with an Illumina HiSeq2000 instrument (Washington University Genome Sequencing Center). Quality check was performed on the raw RNA-Seq reads (FastQC, https://www.bioinformatics.babraham.ac.uk/projects/fastqc/), and the adapters were cut (Trim Galore, https://www.bioinformatics.babraham.ac.uk/projects/trim_galore/) and mapped with hg38 genome (HISAT2)[64]. Differentially expressed transcripts were defined with Cuffdiff tools[65] and visualized using R software (https://www.r-project.org/). Signaling pathway analysis was conducted with the Ingenuity Pathway Analysis program (QIAGEN Inc., https://www.qiagenbioinformatics.com/products/ingenuitypathway-analysis)[27].

Raji cells [4] = assay: Real-time PCR, mRNA expression; format: cell-based, human
Method: (§2) Real-time PCR experiments were performed as previously described. The experiments were performed in triplicate.

LCL1 cells [5] = assay: Real-time PCR, mRNA expression; format: cell-based, human
Method: as §2

PI3Kγ = target: T1, PI3Kγ (Homo sapiens, UniProt P48736); assay: Competitive binding pull-down assay in SU-DHL-4 cell lysates, western blot; conditions: SU-DHL-4 lysates, 51048 together with parent Brusatol
T1 construct: endogenous in cells; host or cells: SU-DHL-4 cells (lysate)
T1 sequence (P48736 whole entry): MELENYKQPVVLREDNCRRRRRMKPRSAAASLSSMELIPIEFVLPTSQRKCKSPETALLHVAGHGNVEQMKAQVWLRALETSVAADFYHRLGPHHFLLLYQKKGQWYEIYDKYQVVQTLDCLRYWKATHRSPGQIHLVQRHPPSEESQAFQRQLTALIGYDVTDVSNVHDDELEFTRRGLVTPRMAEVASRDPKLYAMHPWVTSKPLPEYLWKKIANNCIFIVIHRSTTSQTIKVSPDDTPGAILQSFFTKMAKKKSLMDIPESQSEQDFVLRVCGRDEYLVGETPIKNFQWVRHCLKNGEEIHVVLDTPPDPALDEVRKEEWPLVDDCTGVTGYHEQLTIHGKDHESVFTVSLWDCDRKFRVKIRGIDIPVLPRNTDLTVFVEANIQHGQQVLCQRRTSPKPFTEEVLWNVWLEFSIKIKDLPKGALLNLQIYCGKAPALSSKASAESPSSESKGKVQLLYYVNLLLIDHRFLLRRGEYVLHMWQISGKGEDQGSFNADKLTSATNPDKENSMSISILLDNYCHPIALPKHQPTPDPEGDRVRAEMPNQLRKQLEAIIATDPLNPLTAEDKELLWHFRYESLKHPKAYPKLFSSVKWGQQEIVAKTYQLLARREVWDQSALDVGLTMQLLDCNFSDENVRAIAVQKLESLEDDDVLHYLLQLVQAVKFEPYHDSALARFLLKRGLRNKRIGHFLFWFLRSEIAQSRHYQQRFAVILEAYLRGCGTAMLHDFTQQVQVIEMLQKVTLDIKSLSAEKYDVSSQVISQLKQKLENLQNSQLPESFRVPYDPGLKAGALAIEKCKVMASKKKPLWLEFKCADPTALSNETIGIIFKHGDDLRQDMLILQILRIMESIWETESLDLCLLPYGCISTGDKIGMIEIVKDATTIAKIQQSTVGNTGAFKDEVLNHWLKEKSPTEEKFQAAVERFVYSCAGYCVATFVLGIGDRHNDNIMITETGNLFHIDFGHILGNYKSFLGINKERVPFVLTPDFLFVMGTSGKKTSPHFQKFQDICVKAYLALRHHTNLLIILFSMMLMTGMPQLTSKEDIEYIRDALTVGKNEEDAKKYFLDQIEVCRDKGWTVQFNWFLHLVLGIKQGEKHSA
Method: Thirty microgram of purified GST-tagged proteins were pre-cleared with Dynabeads M-280 Streptavidin (Invitrogen, Carlsbad, CA, USA). […] The complexes were harvested and washed with PBS. The collected beads were mixed with SDS loading buffer for further analysis.
(§3) Western blot analyses were performed as previously described. Briefly, total cell lysates were separated by SDS-PAGE gel and transferred to nitrocellulose membrane. The membranes were blocked with 5% non-fat milk, probed with specific antibodies, and visualized using the Odyssey scanner (LiCor Inc., Lincoln, NE).

Raji cells [6] = assay: Cell cycle assay (PI staining, flow cytometry); format: cell-based, human; conditions: 100 nM, 48 h
Method: (§4) Five million cells were harvested, fixed with 80% ethanol for 2 h or overnight at −20 °C, then washed with PBS and incubated with Propidium iodide (PI) staining buffer (0.5 mg/ml propidium iodide in PBS with 50 μg/ml RNase A) for 30 min at room temperature. The stained cells were resuspended in PBS and analyzed on a FACSCalibur system (Becton Dickinson, San Jose, CA, USA) using FlowJo software (TreeStar, San Carlos, CA, USA).

HL-60 cells [7] = assay: Cell cycle assay (PI staining, flow cytometry); format: cell-based, human; conditions: HL-60, 100 nM, 48 h
Method: as §4

K562 cells [8] = assay: Cell cycle assay (PI staining, flow cytometry); format: cell-based, human; conditions: K562, 100 nM, 48 h
Method: as §4

SU-DHL-4 cells = assay: Western blot of PI3K/AKT signaling proteins; format: cell-based, human; conditions: SU-DHL-4, 0, 50 nM, 100 nM; 0, 12 h, 24 h
Method: as §3

HL-60 cells [9] = assay: Western blot of PI3K/AKT signaling proteins; format: cell-based, human; conditions: HL-60, 0, 50 nM, 100 nM; 0, 12 h, 24 h
Method: as §3

LCL1 cells [10] = assay: Western blot of PI3K/AKT signaling proteins; format: cell-based, human; conditions: LCL1, Fig. 2i
Method: as §3

K562 cells [11] = assay: Western blot of PI3K/AKT signaling proteins; format: cell-based, human; conditions: K562, 0, 50 nM, 100 nM; 0, 12 h, 24 h
Method: as §3

[12] = tested on: PDX-129 (B-cell Follicular lymphoma); assay: Cell viability assay in patient-derived xenograft cells; format: cell-based, human; conditions: PDX-129, different concentrations, 72 h
Method: (§5) 5000 cells as indicated were cultured in 96-well plate with 100 μl of media. On the next day, Brusatol or associated analogs were added once to the cells without media change. After treatment, the cells were incubated with 100 μl buffer for 10 min at room temperature following the instructions of CellTiter-Glo kit (Promega, Madison, WI). Luminescence was detected using a multi-mode reader Cytation 5 (BioTek, Winooski, VT). […] Two independent experiments done in duplicates were performed.

[13] = tested on: PDX-255 (Burkitt's lymphoma); assay: as above; format: cell-based, human; conditions: PDX-255, different concentrations, 72 h
Method: as §5

[14] = tested on: PDX-223 (Diffuse large B cell lymphoma); assay: as above; format: cell-based, human; conditions: PDX-223, different concentrations, 72 h
Method: as §5

[15] = Brusatol-treated LCL1 cells, RNA-Seq, IPA

## COC(=O)C12OCC34C(CC5C(C)=C(OC(=O)CNC(=O)OC(C)(C)C)C(=O)CC5(C)C3C(O)C1O)OC(=O)C(OC(=O)C=C(C)C)C24 (centres unmarked) [#15]
[1]; 10 mg/kg intraperitoneally every other day, monitored 24 days, 4 mice per group
  toxicity in vivo (survival): obviously lethal for the majority of mice within the first 4 days
[1]; Days Post-treatment 2
  survival event status per mouse (Fig 6i; 1 = event/death, 0 = censored): 1
[1]; Days Post-treatment 3
  survival event status per mouse (Fig 6i; 1 = event/death, 0 = censored): 1
[1]; Days Post-treatment 4
  survival event status per mouse (Fig 6i; 1 = event/death, 0 = censored): 1
MOLM14 cells; MOLM-14, read-out: relative cell viability (Fig 6e), replicates, MOLM14, Con. 0.00244141 μM, fraction of 0 μM control
  viability at 0.00244141 µM: 71.1%
MOLM14 cells; MOLM-14, read-out: relative cell viability (Fig 6e), replicates, MOLM14, Con. 0.0390625 μM, fraction of 0 μM control
  viability at 0.0390625 µM: 15%
MOLM14 cells; MOLM-14, read-out: relative cell viability (Fig 6e), replicates, MOLM14, Con. 0.15625 μM, fraction of 0 μM control
  viability at 0.15625 µM: 5.59%
MOLM14 cells; MOLM-14, read-out: relative cell viability (Fig 6e), replicates, MOLM14, Con. 0.625 μM, fraction of 0 μM control
  viability at 0.625 µM: 3.26%
MOLM14 cells; MOLM-14, read-out: relative cell viability (Fig 6e), replicates, MOLM14, Con. 10 μM, fraction of 0 μM control
  viability at 10 µM: 3.59%

## Brusatol
K562 cells [2]; experiment of Fig 3a
  killing: more than 90%
K562 cells [2]; independent experiment of Fig 3b
  killing: approximately 50%
LCL1 cells [3]; [15]
  Expr Other, upstream regulator ALDH1A2: -1.404
  Expr Other, upstream regulator ARRB2: -0.306
  Expr Other, upstream regulator CBX5: -1.126
  Expr Other, upstream regulator CD22: 2.89
  Expr Other, upstream regulator CDC73: -0.568
  Expr Other, upstream regulator CYLD: -1.473
  Expr Other, upstream regulator DICER1: 1.146
  Expr Other, upstream regulator DNAJB6: 0.673
  Expr Other, upstream regulator FKBP4: 0.61
  Expr Other, upstream regulator GMNN: -1.679
  Expr Other, upstream regulator GRN: 0.925
  Expr Other, upstream regulator IFNGR1: 0.304
  Expr Other, upstream regulator KMT2D: -0.912
  Expr Other, upstream regulator NONO: 1.295
  Expr Other, upstream regulator PAX8: 1.9
  Expr Other, upstream regulator PTPRJ: -1.699
  Expr Other, upstream regulator RARRES3: 2.648
  Expr Other, upstream regulator SOD2: 1.251
  Expr Other, upstream regulator UPF2: -0.435
  Expr Other, upstream regulator WDR5: 0.395
  Expr Other, upstream regulator ZC3H12A: -1.316
LCL1 cells [3]; LCL1, 72 h
  CTNNA1 transcript (RNA-Seq): dramatically downregulated
  SLC22A1 transcript (RNA-Seq): highly upregulated
Raji cells [4]
  mRNA levels of AKT1, ATF3, PIK3CG, and PIK3C2B: downregulated
LCL1 cells [5]
  mRNA levels of AKT1, ATF3, PIK3CG, and PIK3C2B: downregulated
PI3Kγ
  binding of 51048 with PI3Kγ in the presence of competitor: reduced
Raji cells [6]
  Sub-G1 population: 68.4%
HL-60 cells [7]
  Sub-G1 population: 7.63%
K562 cells [8]
  Sub-G1 population: 3.19%
SU-DHL-4 cells
  protein expression of AKT1, GSK3, and mTOR: substantially reduced
HL-60 cells [9]
  protein expression of AKT1, GSK3, and mTOR: minimally affected
LCL1 cells [10]
  levels of AKT1 and GSK3 proteins: decreased
K562 cells [11]
  protein expression of AKT1, GSK3, and mTOR: minimally affected
[12]
  inhibition of cell viability: inhibited
[13]
  inhibition of cell viability: inhibited
[14]
  inhibition of cell viability: inhibited
